The structures appear in SMILES notation. Several values for one entry are separate records, joined by “and”; a condition that tells them apart may be missing. Equal values may be shown once. Residues, ends and D or L forms follow the SMILES beside them. *: point of attachment. NHOH = ON*

Test [1] has as its system Panc1 cells (Pancreatic cancer). The test can be described thus: Cell kill of Panc1 cells, CyQuant NF assay (DNA content). Format: cell-based. The protocol: Compounds 6 and 9 were tested with Panc1 cells (Pancreatic cancer) plated in DMEM medium (2 mM glutamine). Approximately 30,000 live cells were plated. Compounds were dissolved in PBS and pH adjusted to neutrality (200 mM stock). Compound 9 was added at 1 mM, 2 mM and 4 mM concentrations into separate wells. Compound 6 was added at 0.25 mM and 1 mM concentrations into separate wells. The cells were incubated for 48 and 96 hours in the presence of compound 9, and 48 and 72 hours in the presence of compound 6. Cell number was determined with the CyQuant NF assay (measures DNA content) according to manufacturer's instruction (Invitrogen).

The subject of test [2] is IM-9 cells (Multiple Myeloma). The test is described as follows: Cell kill of IM-9 cells, CyQuant NF assay (DNA content). Format: cell-based. As for the experimental part:
Compounds 6 and 9 were tested for their ability to kill IM-9 cells (Multiple Myeloma). Approximately 25,000 cells were plated in RPMI medium (4 mM glutamine). Compounds 6 and 9 were dissolved in PBS and pH adjusted to neutrality (200 mM stock). Compound 9 was added at 1 mM, 2 mM and 4 mM concentrations into separate wells. Compound 6 was added at 0.25 mM and 1 mM concentrations into separate wells. The cells were incubated for 48 and 96 hours in the presence of […], and 48 and 72 hours in the presence of compound 6. Cell number was determined with the CyQuant NF assay (measures DNA content) according to manufacturer's instruction (Invitrogen). For the sake of clarity, compounds 6 and 9 are reproduced below: […]

The mark [3] stands for this setting: 1 mM compound, Day 2, DMEM medium (2 mM glutamine).

With `NC(=O)CC[C@H](NC(=O)CC[C@H](N)C(=O)O)C(=O)NO` [Compound 6, β-Glu-Gln (NHOH mimetic)], the “Cells killed v. control” value in test [1] (0.25 mM compound, Day 2, DMEM medium (2 mM glutamine)) was approximately 32%; in test [1] (0.25 mM compound, Day 3, DMEM medium (2 mM glutamine)), approximately 50%; in test [1] (setting [3]), approximately 66%; in test [1] (1 mM compound, Day 3, DMEM medium (2 mM glutamine)), approximately 75%; in test [2] (0.25 mM compound, Day 3, RPMI medium (4 mM glutamine)) it was approximately 87%; in test [2] (1 mM compound, Day 2, RPMI medium (4 mM glutamine)) it was approximately 83%. In test [2] (1 mM compound, Day 3, RPMI medium (4 mM glutamine)), the “Cells killed v. control” value is reported as approximately 91%.

Turning to `NC(=O)CCC(NC(=O)C(N)CCC(=O)O)C(=O)NO` (stereo not drawn) [Compound 9, α-Glu-Gln (NHOH mimetic)] (H-Glu-Gln-{NHOH}; configuration not given here), the “Cells killed v. control” value is approximately 0% in test [1] (setting [3]); approximately 7% in test [1] (2 mM compound, Day 2, DMEM medium (2 mM glutamine)); approximately 9% in test [1] (2 mM compound, Day 4, DMEM medium (2 mM glutamine)); approximately 11% in test [1] (4 mM compound, Day 2, DMEM medium (2 mM glutamine)); approximately 55% in test [1] (4 mM compound, Day 4, DMEM medium (2 mM glutamine)); ~58% and 58% in test [2] (1 mM compound, Day 4, RPMI medium (4 mM glutamine)). Besides, the “Cells killed v. control” value in test [2] (2 mM compound, Day 2, RPMI medium (4 mM glutamine)) was approximately 29%; in test [2] (2 mM compound, Day 4, RPMI medium (4 mM glutamine)) it was approximately 66%; in test [2] (4 mM compound, Day 2, RPMI medium (4 mM glutamine)), approximately 61%; in test [2] (4 mM compound, Day 4, RPMI medium (4 mM glutamine)), approximately 96%.

For the origin of these results see US20190309017A1, “GLUTAMINASE INHIBITORS” (Glutaminax, LLC, priority 2018, published 2019).
